Test results reported in paper PMC8470702 (Pharmaceuticals, 2021).
Values joined by “and” are separate entries in the source; they are usually repeats but may differ in a detail not shown here. Equal values may be shown once.

Key:
Daudi cells = assay: Cytotoxicity assay (MTT), 72 h; assay type: cell-based, human; conditions: for IC50: Homo sapiens, Daudi, 72 h of treatment, MTT; for Selectivity index Daudi: IC50 of normal (BALB/3T3) vs. cancer cells (Daudi)
Experimental: (§1) Then, the tested compounds were diluted in culture medium (RPMI1640 + OptiMEM) to reach the final concentrations. Then, cells were treated for 72 h with derivatives at concentrations of […] (100 μL of each concentration per well), or with culture medium alone as a cells control or medium control.
(§2) Each compound in each concentration was tested in triplicate in a single experiment, which was repeated 3–5 times.
(§3) MTT: 20 µL MTT solution (5 mg/mL of PBS, Merck) was added to wells and plates were placed in an incubator. […] The optical density of individual samples was read at a wavelength of 570 nm using a plate reader (Synergy H4 Hybrid Reader, BioTek).

MV4-11 cells = assay: Cytotoxicity assay (MTT), 72 h; assay type: cell-based, human; conditions: for IC50: Homo sapiens, MV4-11, 72 h of treatment, MTT; for Selectivity index MV4-11: IC50 of normal (BALB/3T3) vs. cancer cells (MV4-11)
Experimental: as §1, §2, §3

[1] = test system: HDAC homologues (HDACs), HeLa cell extract; assay: Fluorimetric HDACs inhibition kit (Histone Deacetylase Activity Assay, HeLa cell extract); conditions: for HDAC activity at 2 µM [%]: remaining HDACs activity at 2 µM compound; for IC50: read-out: Inhibition of HDAC homologues (HDACs) IC50
Experimental: The HDACAA kit is based on a two-step enzymatic reaction. The substrate for the reaction is a substituted peptide with an acetylated lysine residue and a bound fluorescent group. The first step of the reaction is deacetylation of the acetylated lysine side chain by the HDAC containing sample (HeLa cell extract). The second step is the cleavage of the deacetylated substrate with the developer solution and the release of the free highly fluorescent group. […] The plate was incubated at 30 °C for 30 min. Next, 10 µL of Developer Solution was added to each well and incubated at room temperature for 10 min. The fluorescence was measured with the fluorimeter plate reader (SpectraMax iD3, Molecular Devices): excitation wavelength of 360 nm and emission wavelength of 460 nm. The following concentrations were used: 0.1, 0.5, 1, and 2 µM. Each compound in each concentration was tested in triplicate. All calculations were performed using Origin 9.0 software.

HDAC8 = target: T1, HDAC8 (Homo sapiens, UniProt Q9BY41); assay: Histone Deacetylase 8 Activity Assay; assay type: biochemical; conditions: read-out: Inhibition of HDAC8 activity IC50
T1 construct: purchased Sigma
T1 sequence (Q9BY41 1-377): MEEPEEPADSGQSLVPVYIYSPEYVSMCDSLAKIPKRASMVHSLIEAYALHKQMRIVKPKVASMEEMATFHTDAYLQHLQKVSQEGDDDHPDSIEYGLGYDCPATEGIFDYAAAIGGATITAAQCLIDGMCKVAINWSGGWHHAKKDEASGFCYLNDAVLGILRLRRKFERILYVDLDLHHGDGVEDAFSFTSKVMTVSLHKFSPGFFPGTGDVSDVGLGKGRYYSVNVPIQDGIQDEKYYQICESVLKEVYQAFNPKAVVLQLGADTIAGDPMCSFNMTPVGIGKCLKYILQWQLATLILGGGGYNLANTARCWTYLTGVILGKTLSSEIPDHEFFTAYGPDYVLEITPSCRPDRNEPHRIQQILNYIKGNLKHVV
Experimental: In order to measure histone deacetylase 8 activity, Histone Deacetylase 8 Activity Assay (Sigma) was used. The HDAC8 acts with the supplied Developer to deacetylate and then cleave the HDAC8 Substrate (R-H-K(Ac)-K(Ac)-AFC). The reaction reagents were added to the wells of a 96-well plate according to Table 7. […] The fluorescence was measured with the fluorimeter plate reader: excitation wave-length of 380 nm and emission wavelength of 500 nm. The following concentrations were used: 0.5, 1, 1.5, 2, 3, and 4 µM. Each compound in each concentration was tested in triplicate. All calculations were performed using Origin 9.0 software.

BALB/3T3 cells = assay: Cytotoxicity assay (SRB), 72 h; conditions: Mus musculus, BALB/3T3, 72 h, read-out: IC50 BALB/3T3
Experimental: Then, the tested compounds were diluted in culture medium (RPMI1640 + OptiMEM) to reach the final concentrations. Then, cells were treated for 72 h with derivatives at concentrations of 50, 10, 2, 0.4, and 0.008 µM (100 μL of each concentration per well), or with culture medium alone as a cells control or medium control.

MCF-7 cells = assay: Cytotoxicity assay (SRB), 72 h; assay type: cell-based, human; conditions: for IC50: Homo sapiens, MCF7, 72 h of treatment, SRB; for Selectivity index MCF-7: IC50 of normal (BALB/3T3) vs. cancer cells (MCF-7)
Experimental: as §1, §2
(§4) SRB: 50 µL 50% cold trichloroacetic acid (TCA, Merck) solution was added to each wells and incubated for 1 h at 4 °C. The plates were rinsed with distilled water, and after drying on a paper towel, 50 µL of a 0.1% (w/v) solution of sulforodamine B (Merck) in 1% acetic acid (POCH, Poland) was added and incubated for 30 min at room temperature. Subsequently, the plates were washed with 1% (v/v) acetic acid and after desiccation of excess acid, 150 µL of 10 mM TRIS (Merck) was added. After another 30 min of incubation at RT, the optical density of individual samples was read at 540 nm using a plate reader (Synergy H4 Hybrid Reader, BioTek).

A549 cells = assay: Cytotoxicity assay (SRB), 72 h; assay type: cell-based, human; conditions: for IC50: Homo sapiens, A549, 72 h of treatment, SRB; for Selectivity index A549: IC50 of normal (BALB/3T3) vs. cancer cells (A549)
Experimental: as §1, §2, §4

| SMILES | IC50 (Daudi cells) [nM] | IC50 (MV4-11 cells) [nM] | melting point [°C] | HDAC activity at 2 µM [%] [1] [%] | IC50 (HDAC8) [nM] | IC50 [1] | Selectivity index Daudi (Daudi cells) | Selectivity index MV4-11 (MV4-11 cells) | IC50 (BALB/3T3 cells) [nM] | IC50 (MCF-7 cells) [nM] | Selectivity index MCF-7 (MCF-7 cells) | IC50 (A549 cells) [nM] | Selectivity index A549 (A549 cells) |
| --- | --- | --- | --- | --- | --- | --- | --- | --- | --- | --- | --- | --- | --- |
| CN1C(=O)c2ccccc2N(CC(=O)NO)C(=O)c2ccccc21 [Compound 7a] | > 50000 | > 50000 | 233 to 234 | 95.6 ± 1.4 | – | – | – | – | – | – | – | – | – |
| CN1C(=O)c2ccccc2N(CCC(=O)NO)C(=O)c2ccccc21 [Compound 7b] | > 50000 | > 50000 | 105 to 106 | 84.1 ± 2.3 | – | – | – | – | – | – | – | – | – |
| CN1C(=O)c2ccccc2N(CCCC(=O)NO)C(=O)c2ccccc21 [Compound 7c] | > 50000 | > 50000 | 190 to 191 | 75.4 ± 3.0 | – | – | – | – | – | – | – | – | – |
| CN1C(=O)c2ccccc2N(CCCCC(=O)NO)C(=O)c2ccccc21 [Compound 7d] | 9600 ± 2100 | 7580 ± 2500 | 217 to 218 | 64.6 ± 3.6 | – | – | – | – | – | – | – | – | – |
| CN1C(=O)c2ccccc2N(CCCCCC(=O)NO)C(=O)c2ccccc21 [Compound 7e] | 3030 ± 550 | 2330 ± 640 | 155 to 156 | 48.7 ± 1.0 | 5670 ± 640 | 1960 ± 105 nM | – | – | – | – | – | – | – |
| CN1C(=O)c2ccccc2N(CCCCCCC(=O)NO)C(=O)c2ccccc21 [Compound 7f] | 4830 ± 1960 | 4450 ± 340 | 145 to 146 | 66.1 ± 4.1 | – | – | – | – | – | – | – | – | – |
| O=C(CN1C(=O)c2ccccc2C=Cc2ccccc21)NO [Compound 7g] | 17300 ± 6200 | 34000 ± 750 | 119 to 120 | 83.6 ± 4.2 | – | – | – | – | – | – | – | – | – |
| O=C(CCN1C(=O)c2ccccc2C=Cc2ccccc21)NO [Compound 7h] | 32600 ± 4780 | > 50000 | 173 to 174 | 87.5 ± 1.2 | – | – | – | – | – | – | – | – | – |
| O=C(CCCN1C(=O)c2ccccc2C=Cc2ccccc21)NO [Compound 7i] | > 50000 | > 50000 | 172 to 173 | 90.4 ± 1.6 | – | – | – | – | – | – | – | – | – |
| O=C(CCCCN1C(=O)c2ccccc2C=Cc2ccccc21)NO [Compound 7j] | 3470 ± 660 | 5300 ± 1360 | 175 to 176 | 63.3 ± 0.5 | – | – | – | – | – | – | – | – | – |
| O=C(CCCCCN1C(=O)c2ccccc2C=Cc2ccccc21)NO [Compound 7k] | 460 ± 122 | 220 ± 21 | – | 15.7 ± 1.3 | 3370 ± 330 | 183 ± 15 nM | 2.78 | 5.82 | 1280 ± 150 | 618 ± 95 | 2.07 | 1270 ± 420 | 1.01 |
| O=C(CCCCCCN1C(=O)c2ccccc2C=Cc2ccccc21)NO [Compound 7l] | 1440 ± 610 | 1570 ± 120 | 151 to 152 | 44.7 ± 4.4 | – | 1240 ± 155 nM | – | – | – | – | – | – | – |
| CN1C(=O)c2ccccc2C(=O)N(CCCCCC(=O)NO)c2ccccc21 [Compound 7m] | 5090 ± 300 | 4450 ± 960 | 95 to 96 | 72.7 ± 5.2 | – | – | – | – | – | – | – | – | – |
| CN1C(=O)c2cc(Cl)c(Cl)cc2C(=O)N(CCCCCC(=O)NO)c2ccccc21 [Compound 7n] | 2560 ± 980 | 2850 ± 340 | 104 to 105 | 68.3 ± 2.8 | – | – | – | – | – | – | – | – | – |
| O=C(CCCCCN1C(=O)c2ccccc2C(=O)N(Cc2ccccc2)c2ccccc21)NO [Compound 7o] | 3520 ± 800 | 3550 ± 750 | 172 to 173 | 64.5 ± 2.1 | – | – | – | – | – | – | – | – | – |
| O=C(CCCCCN1C(=O)c2ccccc2CCc2ccccc21)NO [Compound 7p] | 318 ± 98 | 200 ± 73 | 164 to 165 | 21.5 ± 1.6 | 3140 ± 420 | 309 ± 35 nM | 3.27 | 5.20 | 1040 ± 280 | 661 ± 120 | 1.57 | 1210 ± 240 | 0.86 |
| CN1C(=O)c2cc(Br)ccc2N(CCCCCC(=O)NO)C(=O)c2ccccc21 [Compound 7r] | 785 ± 246 | 603 ± 132 | 76 to 77 | 31.5 ± 7.1 | – | 875 nM and 914 nM | 4.29 | 5.59 | 3370 ± 870 | 2720 ± 570 | 1.24 | 4610 ± 380 | 0.73 |
| COc1cc2c(cc1OC)N(CCCCCC(=O)NO)C(=O)c1ccccc1N(C)C2=O [Compound 7s] | 944 ± 167 | 692 ± 110 | 82 to 83 | 35.9 ± 0.8 | – | 914 nM and 875 nM | 12.75 | 17.4 | 12000 ± 5900 | 4240 ± 1030 | 2.84 | 18000 ± 5770 | 0.67 |
| CN1C(=O)c2cc3ccccc3cc2N(CCCCCC(=O)NO)C(=O)c2cc(Cl)ccc21 [Compound 7t] | 137 ± 40 | 93 ± 9 | 161 to 162 | 19.9 ± 1.6 | 1950 ± 170 | 266 ± 14 nM | 5.04 | 7.42 | 690 ± 50 | 368 ± 15 | 1.88 | 1050 ± 70 | 0.66 |
